Measurements published in US20260167675A1, “VIRAL PEPTIDES AND USES THEREOF” (priority 2022, published 2026).

System: human HLA-A11
Test: Flow cytometry binding of a pan HLA-A antibody against K562/HLA-A11 cells pulsed with HBV POL606-616 peptides (peptide loading)
Format: cell-based
Details: maximum MFI pulsed / maximum MFI un-pulsed cells, loaded if S/N > 1.1; for S/N Peptide Concentration (33 μg/ml): K562/HLA-A11 cells pulsed with 33 μg/ml peptide; for S/N Peptide Concentration (100 μg/ml): K562/HLA-A11 cells pulsed with 100 μg/ml peptide
Protocol: The present Example was designed to assess loading of HBV POL606-616 peptides on HLA-A11 in K562 cells engineered to express human HLA-A11 (K562/HLA-A11 cells). To assess loading of HBV POL606-616 peptides on HLA-A11, K562 cells engineered to express human HLA-A11 (K562/HLA-A11 cells) were pulsed by resuspending the cells in AIM V medium (Gibco. Catalog #31035-025) at a density of 1×10^6 cells/ml followed by the addition of 10 μg/ml human β2-microglobulin (hB2M; EMID Millipore Catalog #475828) and either 100 μg/ml or 33 μg/ml of the indicated peptide (Table 14).
K562/HLA-A11 cells were then incubated overnight at 37° C. Peptide-pulsed cells were then harvested and plated in staining buffer (PBS, without Calcium and Magnesium (Corning, Reference #21-031-CV)+2% FBS (Seradigm, Lot #238B15)) at a density of 200,000 cells per well in a 96-well V-Bottom plate. Cells were incubated with three-fold serial dilutions (5.1 pM-100 nM) with a pan HLA-A antibody (Novus, Catalog #DDX0250P-100) for 30 minutes at 4° C., washed once in staining buffer, and incubated with an Alexa-647 conjugated secondary antibody (Jackson ImmunoResearch, Catalog #115-606-071) at 5 µg/ml for 30 minutes at 4° C. Cells were again washed once in staining buffer and stained with viability dye (CellTrace™ Violet Cell Proliferation Kit, Thermo-Fisher Cat #C34557) for 30 minutes at 4° C. Lastly, cells were washed once in staining buffer and fixed using a 50% solution of BD Cytofix (BD, Catalog #554655). Samples were run and analyzed on an IntelliCyt iQue flow cytometer to calculate mean fluorescence intensity (MFI) on live cells. MFI values were plotted in GraphPad Prism. The secondary antibody alone condition (i.e., no primary antibody) for each dose-response curve was also included in the analysis as a continuation of the three-fold serial dilution and was represented as the lowest dose. The signal-to-noise (S/N) was calculated by dividing the maximum MFI on the pulsed cells by the maximum MFI on un-pulsed K562/HLA-A11 cells (Table 15). Peptides were determined to load if the S/N from pulsed cells/un-pulsed cells was greater than 1.1.

Row | Sequence | S/N Peptide Concentration (33 μg/ml) | S/N Peptide Concentration (100 μg/ml)
1 | GTLPQEHIVHK (Hepatitis B virus) [HBV POL606-616 V2] | 1.0 | 1.1
2 | GTLPQEHIVQK (Hepatitis B virus) [HBV POL606-616 V3] | 1.6 | 1.5
3 | GSLPQEHIVQK (Hepatitis B virus) [HBV POL606-616 V1] | 1.6 | 1.4
4 | GSLPQEHIIQK (Hepatitis B virus) [HBV POL606-616 V4] | 1.5 | 1.5
